According to patent US8268961B2, “Antibacterial peptides and analogues thereof” (Universita Degli Studi di Siena, priority 2004, dated 2012):
≈ marks a conversion by molar mass, not a printed value. Where two headings read alike, the source gives them in different places. Positions of bridges follow the written chain, without caps; N, C: chain ends. Residues, ends and D or L forms follow the SMILES beside them. Chains are numbered I, II in the order given. No end group written: not given here.

Key:
[1] = tested on: Escherichia coli ATCC 25922; type: cell-based; conditions: Escherichia coli ATCC 25922, reference strain
From the text: (§1) MIC is defined as the lowest concentration, in an antibiotic dilution range, that inhibits visible bacterial growth. The importance of MIC sensitivity test is based on the principle that in vitro sensitivity provides a predictive indication of the in vivo efficacy of the antibiotic therapy. Values are expressed as molar concentration and compared to MIC values obtained with commercially available antibiotics such as amikacin, ceftriaxone and levofloxacin (Table 3).
(§2) Reference strains (Escherichia coli ATCC 25922, Pseudomonas aeruginosa ATCC 27853, Staphylococus aureus ATCC 25923 and Chryseobacterium meningosepticum CCUG 4310) and several recent clinical isolates (including multidrug-resistant ones) of various species (Table 2) were used for conventional susceptibility testing experiments. Minimum Inhibitory Concentration (MIC) was determined by a standard microdilution assay as recommended by the National Commitee for Clinical Laboratory Standards (NCCLS) using cation-supplemented Mueller-Hinton (MH) broth (Oxoid Ltd. Basingstoke, UK) and a bacterial inoculum of 5×10^4 CFU per well, in a final volume of 100 μl. Results were recorded by visual inspection after 24 h of incubation at 37° C.

[2] = tested on: Escherichia coli W99FI0077; type: cell-based; conditions: Escherichia coli W99FI0077, FQR ESCR (ESBL/SHV type)
From the text: as §1, §2

[3] = tested on: Klebsiella pneumoniae W99FI0057; type: cell-based; conditions: Klebsiella pneumoniae W99FI0057, ESCR (ESBL/SHV type)
From the text: as §1, §2

[4] = tested on: Pseudomonas aeruginosa 885149; type: cell-based; conditions: Pseudomonas aeruginosa 885149, FQR AGR ESCR CPR (MBL/IMP-13)
From the text: as §1, §2

[5] = tested on: Pseudomonas aeruginosa 891; type: cell-based; conditions: Pseudomonas aeruginosa 891, FQR AGR ESCR CPR (MBL/VIM-2)
From the text: as §1, §2

[6] = tested on: Pseudomonas aeruginosa ATCC27853; type: cell-based; conditions: Pseudomonas aeruginosa ATCC27853, reference strain
From the text: as §1, §2

[7] = tested on: Staphylococcus aureus ATCC 25923; type: cell-based; conditions: Staphylococcus aureus ATCC 25923, reference strain
From the text: as §1, §2

[8] = tested on: Staphylococus aureus MIU-68A; type: cell-based, Staphylococcus aureus; conditions: Staphylococus aureus MIU-68A, meticillin-susceptible
From the text: as §1, §2

[9] = tested on: E. coli strain TG1; experiment: Test of antibacterial activity (colony growth inhibition) on E. coli strain TG1; type: cell-based; conditions: for Antibacterial activity on E. coli TG1 colony growth: E. coli TG1, colony counting vs control without peptide
Method: The antimicrobic activity of the peptides in linear form (L1, L4, L5, L6) and in MAP form (M1, M4, M5, M6) was assayed on the TG1 strain of E. coli. The peptides were incubated at various concentrations (2-1-0.5-0.25-0.12 mg/ml) with cells of E. coli (OD600=0.2) for about 1 hour at 37° C. Subsequently, the cells were plated on agar at dilution such to allow counting of individual colonies. The antimicrobic activity of the synthesised peptide L 1 and M1 is shown FIG. 1 and is compared to a non correlated MAP peptide (MNC) used as negative control.
In one example, the tetrabranched MAP peptides with the amino acid sequence: QAKIRVRLSA [SEQ ID NO: 2], KIRVRLSA [SEQ ID NO: 3], QKKIRVRLSA [SEQ ID NO: 4] are used individually in a bacterial colony growth inhibition test. The test is conducted by incubating different concentrations of MAP peptides with E. coli (strain TG1) and plating bacterial cells on agar at a dilution such to allow for individual colonies counting. The following day, the number of colonies grown after treatment with the three MAP peptides is compared.
Antimicrobic tests were conducted incubating for 75 min at 37° C., 25 μL of E. coli at the OD600 of 0.2 with 25 μl of MAP peptide dissolved in PBS at the various concentrations. The different incubations were further diluted 1:1000 in 2×TY medium and 100 μl were plated on solid 2×TY medium. The plates were left overnight at 30° C. and the individual grown colonies were counted and compared with a control, not treated with MAP peptide.

[10] = tested on: E. coli ATCC 25922; experiment: Minimal bactericidal concentration (MBC); type: cell-based
Method: as §2
(§3) The MBC was determined as recommended by the National Committee for Clinical Laboratory Standards (NCCLS) on strains of E. coli ATCC 25922 and P. aeruginosa ATCC 27853.

[11] = tested on: P. aeruginosa ATCC 27853; experiment: Minimal bactericidal concentration (MBC); type: cell-based
Method: as §2, §3

[12] = tested on: murine macrophage cells J774 A.1; experiment: Cytotoxicity test by MTT; type: cell-based, mouse
Method: (§4) The cytotoxicity of antibacterial MAP peptides was evaluated on different eukaryotic cell lines by a colorimetric assay (MTT). This assay measures the cells' ability to convert a soluble tetrazolium salt into an insoluble precipitate: formazan. The cytotoxicity of M1 was evaluated on murine macrophagic cells (J774 A.1), murine myeloma cells (SPO) and Chinese hamster ovary epithelium cells (CHO K1). As shown FIG. 4, even at high concentrations (1 mg/ml) M1 cytotoxicity on CHO K1 cells and on SPO cells is low (percent survival is 80-90%).
(§5) For cytotoxicity tests, different cell lines were used: murine myeloma cells SPO, hamster ovary epithelium cells CHO K 1, murine macrophage cells J774 A.1 and human keratinocytes HaCaT. The cells were plated in medium in RPMI 1640 (SPO and CHO K 1) and DMEM (J774 A.1 and HaCaT) with antibiotics and bovine foetal serum at 10%, in 96-well plates at the concentration of 6×10^4 (SPO, CHO K1 and J774 A.1) and 3×10^4 (HaCaT). Peptides, previously filtered with a 0.2 μm filter disk (Whatman), were added at various concentrations to the different cell lines and left in incubation over night at 37° C. Cell viability was determined adding the MTT tetrazolium salt at the concentration of 0.5 mg/ml and incubating for 90 min. The cells were solubilised with a solution at pH 4.5 containing SDS 10% and dimethylformamide 45% and read at the dual wavelength of 595/650 nm with a plate reader.

[13] = tested on: human keratinocytes HaCaT; experiment: Cytotoxicity test by MTT; type: cell-based; conditions: up to 1 mg/ml
Method: as §5

[14] = tested on: Pichia pastoris yeast strain X33; experiment: Effect on Pichia pastoris yeast colonies; type: cell-based; conditions: Pichia pastoris X33, data not shown
Method: To a volume of 50 μl of culture of Pichia pastoris grown 24 hour at 30° C. in YPD (Yeast Extract/Peptone/Dextrose) medium, 50 μl of MAP peptides (2 mg/ml) were added and left in incubation 150 min at 37° C. Subsequently, 50 μl of each incubation were plated on YPD solid medium and it was allowed to grow for 48 hours at 30° C. The number of colonies grown was compared with a control, where the yeast was not treated with the MAP.

[15] = tested on: human erythrocytes; experiment: Haemolysis, Parpart erythrocyte osmotic resistance assay; type: cell-based; conditions: 19 hours incubation, 125 μg/ml
Method: The haemolytic activity of M5 and M6 was also evaluated and is represented FIG. 9. Haemolysis of fresh human erythrocytes was determined at peptide concentrations ranging from 1 to 125 μg/ml. […] By contrast, after 19 hours of incubation, the haemolysis induced by M6 and M5 at 125 μg/ml is 7% and 19%, respectively. The percentage of haemolysis of untreated blood after 19 hours (control) is very limited (<1%).
The haemolytic activity of the KIRVRLSA [SEQ ID NO: 3] (M5) and […] [SEQ ID NO: 4] (M6) peptides was evaluated by the Parpart erythrocyte osmotic resistance assay in NaCl. The percentage of haemolysis was calculated by means of a calibration curve obtained incubating the erythrocytes with increasing concentrations of NaCl and measuring the absorbance increase, due to haemolysis, at 540 nm. 0.9% NaCl solutions containing the MAP peptides at different concentrations were then prepared, whereto was added human blood in the ratio of 1:100 (v/v). The samples were left at ambient temperature for 30 min and 19 hours; subsequently, a portion was drawn for each incubation, centrifuged at 1500 rpm for 5 min and the absorbance of the super was measured with the spectrophotometer at 540 nm.

[16] = Cytotoxicity test by MTT; type: cell-based, mouse; conditions: mouse, J774 A.1 murine macrophage cells
Method: as §4, §5

[17] = in vitro; type: cell-based
Method: as §4
as §5, with “Peptides, previously filtered with a 0.2 μm filter disk (Whatman), were added at various concentrations to the different cell lines and left in incubation over night at 37° C.” left out

[18] = Stability to plasmatic protease (HPLC); type: in vitro ADME, human
Method: Since the use of peptides as therapeutic agents is severely limited by their in vivo half-life, the stability to human serum protease of the linear peptide L1 and of the MAP peptides M1, M4, M5 and M6 was evaluated. The peptides were incubated at the concentration of 10 mM with plasma and with human serum for 2 and 24 hours; the samples were subsequently analysed in HPLC on column C18 (see materials and methods) to evaluate the presence of linear and MAP peptide not digested by the protease.
The various peptides in MAP form and the linear peptide (L1) were dissolved in H2O at the concentration of 10 mM and incubated with 10 μl of plasma and human serum for 2 and 24 hours at 37° C. To each sample were added 150 μl of methanol to block the proteolytic reaction; each sample was then centrifuged at 13,000 rpm for 2 min and to the supernatant were added 0.75 ml of 0.1% trifluoroacetic acid. The samples were analysed in reverse phase HPLC on a Vydac C18 semi-preparative column using a 30 min gradient of buffer B from 20% to 95% (buffer A: 0.1% trifluoroacetic acid/water; buffer B: 0.1% trifluoroacetic acid/methanol), to evaluate the presence of linear and MAP peptide after the proteolytic treatment.

[19] = tested on: E. coli strain TG1; experiment: Stability of peptide in solution (time course of antibacterial activity); type: physicochemical; conditions: PBS 0.5 mg/ml, 1, 48 and 72 hours
Method: FIG. 6. Stability of M1 peptide in solution. Time course of antibacterial activity of M1 on E. coli strain TG1. MAP M1 peptide was dissolved in PBS at a concentration of 0.5 mg/ml and bactericide activity was measured 1, 48 and 72 hours after re-suspension in PBS.
FIG. 8. Stability of M4, M5 and M6 peptides in solution. Time course of antibacterial activity of M4, M5 and M6 on E. coli strain TG1. M4, M5 and M6 peptides were dissolved in PBS at a concentration of 0.5 mg/ml and bactericide activity was measured 1, 48 and 144 hours after re-suspension in PBS.

## CC[C@H](C)[C@H](NC(=O)[C@@H](N)CCCCN)C(=O)N[C@@H](CCCNC(=N)N)C(=O)N[C@H](C(=O)N[C@@H](CCCNC(=N)N)C(=O)N[C@@H](CC(C)C)C(=O)N[C@@H](CO)C(=O)N[C@@H](C)C(=O)NCCCC[C@H](NC(=O)[C@H](C)NC(=O)[C@H](CO)NC(=O)[C@H](CC(C)C)NC(=O)[C@H](CCCNC(=N)N)NC(=O)[C@@H](NC(=O)[C@H](CCCNC(=N)N)NC(=O)[C@@H](NC(=O)[C@@H](N)CCCCN)[C@@H](C)CC)C(C)C)C(=O)NCCCC[C@H](NC(=O)[C@H](CCCCNC(=O)[C@H](C)NC(=O)[C@H](CO)NC(=O)[C@H](CC(C)C)NC(=O)[C@H](CCCNC(=N)N)NC(=O)[C@@H](NC(=O)[C@H](CCCNC(=N)N)NC(=O)[C@@H](NC(=O)[C@@H](N)CCCCN)[C@@H](C)CC)C(C)C)NC(=O)[C@H](C)NC(=O)[C@H](CO)NC(=O)[C@H](CC(C)C)NC(=O)[C@H](CCCNC(=N)N)NC(=O)[C@@H](NC(=O)[C@H](CCCNC(=N)N)NC(=O)[C@@H](NC(=O)[C@@H](N)CCCCN)[C@@H](C)CC)C(C)C)C(=O)N[C@@H](C)C(=O)O)C(C)C [M5, KIRVRLSA] (I: H-KIRVRLSAKKA-OH / II: H-KIRVRLSAK / III: H-KIRVRLSA / IV: H-KIRVRLSA; amide I:9-IV:C, I:10-II:C, II:9-III:C; N-terminus assumed)
[1]
  MIC (Molarity): 3.8 µM (≈ 15.8 µg/mL)
[2]
  MIC (Molarity): 31 µM (≈ 129 µg/mL)
[3]
  MIC (Molarity): >31 µM
[4]
  MIC (Molarity): 7.6 µM (≈ 31.7 µg/mL)
[5]
  MIC (Molarity): 3.8 µM (≈ 15.8 µg/mL)
[6]
  MIC (Molarity): 3.8 µM (≈ 15.8 µg/mL)
[7]
  MIC (Molarity): 3.1e-05 M (≈ 129 µg/mL)
[7]; listed as KIRVRLSA
  MIC (Molarity): ~10^−5 M
[8]
  MIC (Molarity): 31 µM (≈ 129 µg/mL)
[9]
  Antibacterial activity on E. coli TG1 colony growth: good antibacterial activity
[10]
  MBC (minimal concentration able to kill 99.9% of the inoculum) compared with MIC: equal to the calculated values of MIC
[10]; listed as KIRVRLSA
  MBC (minimal concentration able to kill 99.9% of the inoculum) compared with MIC: equal to the corresponding MIC values
[11]
  MBC (minimal concentration able to kill 99.9% of the inoculum) compared with MIC: equal to the calculated values of MIC
[11]; listed as KIRVRLSA
  MBC (minimal concentration able to kill 99.9% of the inoculum) compared with MIC: equal to the corresponding MIC values
[12]; J774.A1, overnight, 30 μg/ml
  Effect on cell viability (MTT): did not substantially affect cell viability
[12]; J774 A.1
  Vitality of J774 A.1 cells as the concentration of MAP peptides increases (MTT): decreases
[13]
  Toxicity for human keratinocyte HaCaT cells (MTT): low toxicity
[13]; listed as KIRVRLSA
  Toxicity for human keratinocyte HaCaT cells (MTT): particularly resistant
[14]
  Number of yeast colonies vs negative control: did not differ from the negative control
[15]
  haemolysis of human erythrocytes: 19%

## I: QEKIRVRLSAKKA-OH / II: QEKIRVRLSAK / III: QEKIRVRLSA / IV: QEKIRVRLSA (amide I:11-IV:C, I:12-II:C, II:11-III:C) [M1]
[9]; E. coli TG1, MAP form
  Concentration down to which TG1 E. coli colony growth is prevented: less effective
[9]
  Antibacterial activity on E. coli TG1 colony growth: inhibited significantly
[16]
  viability at 1000 µg/mL: ~50%
[17]; CHO K1 cells (Chinese hamster ovary epithelium)
  viability at 1000 µg/mL: 80 to 90%
[17]; mouse, SPO murine myeloma cells
  viability at 1000 µg/mL: 80 to 90%
[18]
  Resistance to plasmatic protease: Plasma 2 h: +
[19]
  Stability in solution: antibacterial activity over time after resuspension: drop in activity over time
